Test results from PubChem BioAssay AID328 (DTP/NCI, 2004).
Several values for one entry are separate records, joined by “and”; a condition that tells them apart may be missing. Equal entries are not always repeated. Toxic doses and inconclusive results are not listed. The calls were made as follows: active = survival T/C of 150% or more; inactive = T/C below 125% in these data.

Tested on: BDF1 mice, P388 leukemia ip, median survival T/C
Test: NCI In Vivo Anticancer Drug Screen. Data for tumor model P388 Leukemia (intraperitoneal) in B6D2F1 (BDF1) mice
Conditions: endpoint: median survival time, higher = longer survival
Outline: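 Reported as T/C, where T is the survival measurement in dosed animals and C the same measurement in vehicle controls.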

[1] = dose: 50.0 mg/kg/injection, schedule: Q01DX009 (ip), vehicle: saline with Tween-80
[2] = dose: 100.0 mg/kg/injection, schedule: Q01DX009 (ip), vehicle: saline with Tween-80
[3] = dose: 100.0 mg/kg/injection, schedule: Q04DX003 (ip), vehicle: saline with Tween-80
[4] = dose: 200.0 mg/kg/injection, schedule: Q04DX003 (ip), vehicle: saline with Tween-80
[5] = dose: 100.0 mg/kg/injection, schedule: Q04DX003 (ip), vehicle: Klucel (hydroxypropylcellulose) (HPC)
[6] = dose: 200.0 mg/kg/injection, schedule: Q04DX003 (ip), vehicle: Klucel (hydroxypropylcellulose) (HPC)
[7] = dose: 12.5 mg/kg/injection, schedule: Q04DX003 (ip), vehicle: saline with Tween-80

Measured: T/C

CCC(C)SC1=NC=NC2=NC=NC21 (centres undefined)
inactive: [1] 100 % of control | [2] 96 % of control | [3] 91 % of control | [4] 100 % of control

Nc1ccc2ccccc2c1N=Nc1ccccc1
inactive: [5] 109 % of control | [6] 123 % of control

C=CC[n+]1ccccc1C(c1ccccc1)c1ccccc1
inactive: dose: 6.25 mg/kg/injection, schedule: Q01DX009 (ip), vehicle: saline with Tween-80 116 % of control | dose: 12.5 mg/kg/injection, schedule: Q01DX009 (ip), vehicle: saline with Tween-80 120 % of control | [7] 91 % of control

O=[N+]([O-])c1cc([N+](=O)[O-])c(Nn2c3ccccc3c3ccccc32)c([N+](=O)[O-])c1
inactive: dose: 6.25 mg/kg/injection, schedule: Q01DX009 (ip), vehicle: Klucel (hydroxypropylcellulose) (HPC) 100 % of control | dose: 12.5 mg/kg/injection, schedule: Q01DX009 (ip), vehicle: Klucel (hydroxypropylcellulose) (HPC) 90 % of control and 100 % of control | dose: 25.0 mg/kg/injection, schedule: Q01DX009 (ip), vehicle: Klucel (hydroxypropylcellulose) (HPC) 100 % of control and 110 % of control | dose: 50.0 mg/kg/injection, schedule: Q01DX009 (ip), vehicle: Klucel (hydroxypropylcellulose) (HPC) 120 % of control | dose: 100.0 mg/kg/injection, schedule: Q01DX009 (ip), vehicle: Klucel (hydroxypropylcellulose) (HPC) 100 % of control | [5] 100 % of control | dose: 200.0 mg/kg/injection, schedule: Q01DX009 (ip), vehicle: Klucel (hydroxypropylcellulose) (HPC) 95 % of control | [6] 113 % of control

Clc1ccc(C#Cc2ccc(Cl)cc2)cc1
inactive: dose: 6.25 mg/kg/injection, schedule: Q04DX003 (ip), vehicle: saline with Tween-80 92 % of control | [7] 92 % of control | dose: 25.0 mg/kg/injection, schedule: Q04DX003 (ip), vehicle: saline with Tween-80 96 % of control

O=C(NCCCl)N(CCCl)C(=O)Oc1c(Cl)c(Cl)c(Cl)c(Cl)c1Cl
inactive: dose: 50.0 mg/kg/injection, schedule: Q01DX005 (ip), vehicle: Klucel (hydroxypropylcellulose) (HPC) 97 % of control | dose: 100.0 mg/kg/injection, schedule: Q01DX005 (ip), vehicle: Klucel (hydroxypropylcellulose) (HPC) 105 % of control | dose: 200.0 mg/kg/injection, schedule: Q01DX005 (ip), vehicle: Klucel (hydroxypropylcellulose) (HPC) 91 % of control

Cn1c(O)c(C=N)c(=O)[nH]c1=O
inactive: dose: 100.0 mg/kg/injection, schedule: Q01DX009 (ip), vehicle: saline 100 % of control | dose: 100.0 mg/kg/injection, schedule: Q04DX003 (ip), vehicle: saline 100 % of control | dose: 200.0 mg/kg/injection, schedule: Q04DX003 (ip), vehicle: saline 92 % of control | dose: 400.0 mg/kg/injection, schedule: Q01DX009 (ip), vehicle: saline 109 % of control | dose: 400.0 mg/kg/injection, schedule: Q04DX003 (ip), vehicle: saline 107 % of control

CC(=O)CC(C)=O.CC(=O)CC(C)=O.Cc1ncc[nH]1.Cc1ncc[nH]1.[Co]
inactive: dose: 12.5 mg/kg/injection, schedule: Q01DX001 (ip), vehicle: saline with Tween-80 100 % of control | dose: 25.0 mg/kg/injection, schedule: Q01DX001 (ip), vehicle: saline with Tween-80 97 % of control | dose: 50.0 mg/kg/injection, schedule: Q01DX001 (ip), vehicle: saline with Tween-80 113 % of control

NC(=S)N/N=C/C=C/c1ccccc1
inactive: dose: 100.0 mg/kg/injection, schedule: Q04DX002 (ip), vehicle: Klucel (hydroxypropylcellulose) (HPC) 96 % of control

[NH-][n+]1c2c(nc3ccccc31)-c1cccc3cccc-2c13
inactive: dose: 12.5 mg/kg/injection, schedule: Q01DX001 (ip), vehicle: Klucel (hydroxypropylcellulose) (HPC) 111 % of control | dose: 25.0 mg/kg/injection, schedule: Q01DX001 (ip), vehicle: Klucel (hydroxypropylcellulose) (HPC) 100 % of control | dose: 50.0 mg/kg/injection, schedule: Q01DX001 (ip), vehicle: Klucel (hydroxypropylcellulose) (HPC) 100 % of control

COc1cc2c(cc1OC)C1CCN3CCCC3N1CC2 (centres undefined)
inactive: dose: 100.0 mg/kg/injection, schedule: Q01DX001 (ip), vehicle: Klucel (hydroxypropylcellulose) (HPC) 109 % of control | dose: 200.0 mg/kg/injection, schedule: Q01DX001 (ip), vehicle: Klucel (hydroxypropylcellulose) (HPC) 90 % of control

C=CCC1(CC)C(=O)NC(=O)NC1=O
inactive: dose: 50.0 mg/kg/injection, schedule: Q04DX003 (ip), vehicle: saline with Tween-80 91 % of control | [3] 91 % of control | [4] 91 % of control

C[C@]12C=CC(=O)C=C1CC[C@@H]1[C@@H]2CC[C@]2(C)OC(=O)CC[C@@H]12
inactive: [1] 100 % of control | [2] 86 % of control | [3] 90 % of control | dose: 200.0 mg/kg/injection, schedule: Q01DX009 (ip), vehicle: saline with Tween-80 90 % of control | [4] 90 % of control

CCCCCCCCCCCCC(C(=O)O)C1C=CCC1 (centres undefined)
inactive: dose: 100.0 mg/kg/injection, schedule: Q01DX001 (ip), vehicle: other 100 % of control | dose: 200.0 mg/kg/injection, schedule: Q01DX001 (ip), vehicle: other 100 % of control | dose: 400.0 mg/kg/injection, schedule: Q01DX001 (ip), vehicle: other 100 % of control

O=c1cc(CO)[nH]cc1O
inactive: dose: 177.0 mg/kg/injection, schedule: Q01DX009 (ip), vehicle: Klucel (hydroxypropylcellulose) (HPC) 119 % of control
